Experimental data taken from patent publication US11046668B2, “Small molecule antimicrobials” (Ohio State Innovation Foundation, priority 2016, dated 2021).
≈ marks a conversion by molar mass, not a printed value. Entries after “also recorded” stand apart in the source; their conditions may differ. Marks after values point to notes of the source that are not given here.

Columns and labels:
C. jejuni colonization = assay: In vivo effect on C. jejuni colonization in broiler chickens; settings: administered orally, in 30% DMSO; three week old broiler chickens
[1] = tested on: colon cells (CCD-112CoN, ATCC); assay: Cytotoxicity assay on normal colon cells (sulforhodamine B); assay type: cell-based, human; settings: for toxicity against the colon cells: CCD-112CoN, ATCC, data not shown; for survival rates of colon cells: at 200 μM; for highest concentrations of each compound to cause lysis of human colon cells, converted to ppm: 200 μM converted to ppm
C. jejuni [2] = assay: Bacterial growth curves (optical density); settings: OD every 4 hours
Protocol: (§1) For E. coli K12 and L. innocua, the bacterial incubations were followed by measurements of the Optical Density (OD) values every 15 minutes in an automated Sunrise™ Tecan Spectrophotometer (Tecan Co.) during an incubation period of 24 hours at 37° C. For C. jejuni, the incubation experimental design was similar, but the measurement period occurred every 4 hours. From the data collected, comparisons were made with the control samples and statistical analyses were used to determine the significance between the means for all observations.

C. coli [3] = assay: Log reduction test in tapioca film; settings: for % Efficacy loss due to incorporation / Log10 CFU/ml reduction: C. coli; for % Efficacy loss due to incorporation: film vs broth; for Log10 CFU/ml reduction / C. coli count after treatment: in tapioca film, JA-144 3.125 ppm, TH-4 12.5 ppm, TH-8 50 ppm, 24 hours; for Log10 CFU/ml reduction: vs control
Protocol: (§2) The films prepared above were cut into small pieces that were capable of fitting into 1.5 ml micro-tubes. The weight of each film sample ranged from 5 to 15 mg. The micro-tubes were then exposed to UV light for 18 hours to eliminate possible contamination that may have occurred during the cutting and transferring process. […] After adding the proper amount of bacterial culture, the micro-tubes were placed in an incubator aerobically at 37° C. (for E. coli and L. innocua), or microaerobically at 42° C. (for C. jejuni and C. coli), for 24 hours, respectively.
(§3) After 24 hours incubation, the broth was centrifuged at 4,000 rpm for 5 min at 23° C. with appropriate aseptic precautions. The supernatant was discarded and the pellet resuspended using 1 ml of sterile peptone water and centrifuged again at 4000 rpm for 5 min. This step was repeated until the supernatant was clear. The pellets were then suspended in 1 ml sterile peptone water, and seven consecutive 10-fold dilutions were made to obtain inoculums ready for the plate counts. For the experimental groups with the small molecule compounds, 0.1 ml of diluted broth (dilution of 10^−2; 10^−4; 10^−6) were inoculated on to the plates. For the control groups, 0.1 ml of diluted broth (dilution of 10^−6 and 10^−7) was added to the plates. They were then incubated at 37° C. aerobically (for E. coli and L. innocua), or 42° C. microaerobically (for C. jejuni and C. coli) for 24 hours, and then colony numbers on each plate counted using a Darkfield Colony Counter manufactured by American Optical (Buffalo, N.Y.).

C. jejuni [4] = assay: Log reduction test in tapioca film; settings: for % Efficacy loss due to incorporation / Log10 CFU/ml reduction: C. jejuni; for % Efficacy loss due to incorporation: film vs broth; for Log10 CFU/ml reduction / C. jejuni count after treatment: in tapioca film, JA-144 6.25 ppm, TH-4 25 ppm, TH-8 50 ppm, 24 hours; for Log10 CFU/ml reduction: vs control
Protocol: as §2, §3

C. coli [5] = assay: Log reduction test in broth; settings: JA-144 3.125 ppm, TH-4 12.5 ppm, TH-8 50 ppm, 24 hours; for Log10 CFU/ml reduction: C. coli in broth, vs control; for C. coli count after treatment: in broth
Protocol: as §3

C. coli [6] = assay: MIC test in 96 well plate with TTC; assay type: cell-based; settings: Campylobacter coli, 42° C. microaerobically, 24 hours
C. jejuni [7] = assay: MIC test in 96 well plate with TTC; assay type: cell-based; settings: Campylobacter jejuni, 42° C. microaerobically, 24 hours
E. coli K12 [8] = assay: MIC test in 96 well plate with TTC; assay type: cell-based; settings: for antimicrobial activity: starting concentration 50 ppm
Solubility in water = assay type: physicochemical
C. jejuni [9] = assay: Log reduction test in broth; settings: JA-144 6.25 ppm, TH-4 25 ppm, TH-8 50 ppm, 24 hours; for Log10 CFU/ml reduction: C. jejuni in broth, vs control; for C. jejuni count after treatment: in broth
Protocol: as §3

L. innocua [10] = assay: MIC test in 96 well plate with TTC; assay type: cell-based, Listeria innocua; settings: for antimicrobial activity: starting concentration 50 ppm
[11] = tested on: Salmonella, E. coli, Listeria and also several commensal and/or probiotic bacteria; assay: Specificity against diverse foodborne pathogens and commensal/probiotic bacteria; assay type: cell-based; settings: tested for specificity against foodborne pathogens and commensal/probiotic bacteria
E. coli K12 [12] = assay: Log reduction test in broth; settings: 100 ppm JA-144
Protocol: as §3

L. innocua [13] = assay: Bacterial growth curves (optical density); settings: OD over 24 hours at 37° C.
Protocol: as §1

E. coli K12 [14] = assay: Log reduction test in tapioca film
Protocol: as §2, §3

L. innocua [15] = assay: Log reduction test in tapioca film
Protocol: as §2, §3

L. innocua [16] = assay: Log reduction test in broth; settings: 100 ppm JA-144
Protocol: as §3

[17] = tested on: pathogenic E.coli, Listeria strain, C. jejuni and E. coli bacteria; assay: Efficacy of JA-144 when incorporated in edible films (Example 1); assay type: cell-based
Text: As described in primary HTS, we screened re-synthesized two compounds for C. jejuni 81-176 growth inhibition. Both re-synthesized compounds effective inhibiting Campylobacter growth at tested concentrations. […] Where positive control (P CNTL includes Campylobacter culture with known antibiotics and negative control (N CNTL) include Camylobacter culture alone. See FIG. 13. Testing the efficacy of JA-144 when incorporated in edible films against pathogenic E.coli, Listeria strain, C. jejuni and E. coli bacteria. The control (CNTL) include edible film alone. JA-144 was effective in reducing most of the pathogenic bacteria by 4 log. See FIG. 14. A cytotoxicity assay for potent semi-synthetic derivative compounds were performed using normal colon cells and sulfohodamine B methods. See FIG. 15. A cytotoxicity assay was performed for two re-synthesized compounds using normal colon cells and sulforhodamine B methods.

E. coli K12 [18] = assay: Bacterial growth curves (optical density); settings: OD over 24 hours at 37° C.
Protocol: as §1

[19] = in tapioca film, 1% w/w JA-144, 24 hours incubation

Row | SMILES | in vivo results in a chicken model (C. jejuni colonization) | toxicity against the colon cells [1] | survival rates of colon cells [1] | highest concentrations of each compound to cause lysis of human colon cells [1] | highest concentrations of each compound to cause lysis of human colon cells, converted to ppm [1] | concentration that completely inhibited growth (growth curve) (C. jejuni [2]) | % Efficacy loss due to incorporation (C. coli [3]) | Log10 CFU/ml reduction (C. coli [3]) | C. coli count after treatment (C. coli [3]) | % Efficacy loss due to incorporation (C. jejuni [4]) | Log10 CFU/ml reduction (C. jejuni [4]) | C. jejuni count after treatment (C. jejuni [4]) | Log10 CFU/ml reduction (C. coli [5]) | C. coli count after treatment (C. coli [5]) | MIC (C. coli [6]) | MIC (C. jejuni [7]) | antimicrobial activity (E. coli K12 [8]) | Log10 CFU/ml reduction (C. jejuni [9]) | C. jejuni count after treatment (C. jejuni [9]) | spectrum of antibacterial activity [11] | further results
1 | Cc1ccccc1CNS(=O)(=O)c1ccc(Cl)s1 [TH-8] | promising in vivo results | lacked toxicity | 79% | 200 µM | 60.4 ppm | 50 ppm | 48.01% | 2.87 Log10 CFU/ml | 6.83 ± 0.06^a Log10 CFU/ml | 25.52% | 4.01 Log10 CFU/ml | 5.10 ± 0.07^a Log10 CFU/ml | 5.51 Log10 CFU/ml | 4.11 ± 0.05^a Log10 CFU/ml | 25 to 50 µg/mL (≈ 82.8 to 166 µM) | 25 to 50 µg/mL (≈ 82.8 to 166 µM) | ineffective; also recorded: did not show antimicrobialactivity | 5.39 Log10 CFU/ml | 3.64 ± 0.05^a Log10 CFU/ml | specific to C. jejuni and C. coli | solubility in water (Solubility in water): not readiliy soluble in water; antimicrobial activity (L. innocua [10]): ineffective; also recorded: did not show antimicrobialactivity
2 | O=S(=O)(NCc1ccc(F)cc1)c1ccc(Cl)s1 [TH-4] | promising in vivo results | lacked toxicity | 60% | 200 µM | 61.1 ppm | 25 ppm | 29.02% | 4.37 Log10 CFU/ml | 5.03 ± 0.07^a Log10 CFU/ml | 6.09% | 5.99 Log10 CFU/ml | 3.16 ± 0.14^a Log10 CFU/ml | 6.16 Log10 CFU/ml | 3.21 ± 0.12^a Log10 CFU/ml | 12.5 to 25 µg/mL (≈ 40.9 to 81.8 µM) | 12.5 to 25 µg/mL (≈ 40.9 to 81.8 µM) | ineffective; also recorded: no antimicrobialactivity | 6.37 Log10 CFU/ml | 2.78 ± 0.09^a Log10 CFU/ml | specific to C. jejuni and C. coli | solubility in water (Solubility in water): not readiliy soluble in water; antimicrobial activity (L. innocua [10]): ineffective; also recorded: no antimicrobialactivity
3 | OCC1(Cc2ccccc2)CCCN(Cc2cc3ccccc3[nH]2)C1 (stereo not shown) [JA-144] | – | – | 99% | 200 µM | 66.9 ppm | 6.25 ppm | 2.03% | 6.14 Log10 CFU/ml | 2.93 ± 0.16^a Log10 CFU/ml | 0.25% | 6.36 Log10 CFU/ml | 2.86 ± 0.13^a Log10 CFU/ml | 6.27 Log10 CFU/ml | 2.93 ± 0.26^a Log10 CFU/ml | 3.12 to 6.25 µg/mL (≈ 9.34 to 18.7 µM) | 3.12 to 6.25 µg/mL (≈ 9.34 to 18.7 µM) | – | 6.35 Log10 CFU/ml | 2.90 ± 0.09^a Log10 CFU/ml | broad spectrum effect on other bacteria including E. coli and Listeria | Log10 CFU/ml reduction (E. coli K12 [12]; E. coli K12 in broth, 24 hours, vs control): 5.86 Log10 CFU/ml; E. coli K12 count after treatment (E. coli K12 [12]; in broth, 24 hours incubation): 2.96 ± 0.30^a Log10 CFU/ml; concentration that completely inhibited growth (growth curve) (L. innocua [13]): 100 ppm; Percent efficacy loss due to incorporation (E. coli K12 [14]; E. coli K12, film vs broth): 43.48%; Log10 CFU/ml reduction (E. coli K12 [14]; E. coli K12, tapioca film, 1% w/w JA-144, 24 hours, vs control): 3.31 Log10 CFU/ml; E. coli K12 count after treatment (E. coli K12 [14]; [19]): 5.58 ± 0.08^a Log10 CFU/ml; Percent efficacy loss due to incorporation (L. innocua [15]; L. innocua, film vs broth): 36.42%; Log10 CFU/ml reduction (L. innocua [15]; L. innocua, tapioca film, 1% w/w JA-144, 24 hours, vs control): 3.51 Log10 CFU/ml; L. innocua count after treatment (L. innocua [15]; [19]): 5.22 ± 0.07^b Log10 CFU/ml; Log10 CFU/ml reduction (L. innocua [16]; L. innocua in broth, 24 hours, vs control): 5.52 Log10 CFU/ml; L. innocua count after treatment (L. innocua [16]; in broth, 24 hours incubation): 3.14 ± 0.11^b Log10 CFU/ml; MIC (E. coli K12 [8]; Escherichia coli, 37° C. aerobically, 24 hours): 100 µg/mL (≈ 299 µM); reduction of most of the pathogenic bacteria [17]: 4 log; concentration that completely inhibited growth (growth curve) (E. coli K12 [18]): 100 ppm; MIC (L. innocua [10]; Listeria innocua, 37° C. aerobically, 24 hours): 50 to 100 µg/mL (≈ 149 to 299 µM)
